US20150079673A1, “HEPATOCYTES IN CO-CULTURE AND USES THEREOF” (Colorado State University Research Foundation, priority 2013, published 2015)

Key:
Format in all cases: cell-based
[1] = tested on: human hepatocytes maintained in micropatterned co-culture with 3T3-J2 murine embryonic fibroblasts; assay: Gluconeogenesis (glucose production) in glycogen-depleted MPCC; conditions: at 24 hours, following a varying dose of metformin; FIG. 9B
Description: To test for gluconeogenesis in diabetic hepatocytes in co-culture, the MPCC hepatocyte cultures comprising diabetic versus non-diabetic cells were subjected to glucose-free medium for 24-48 hours, thereby depleting the resident glycogen stores so that cells were only able to perform gluconeogenesis in the presence of the glucose precursors lactate and pyruvate. Gluconeogenesis rate was measured by incubating glycogen-depleted cultures with the substrates pyruvate and lactate, in glucose-free medium and glucose measurement in medium (Amplex Red) at 24 hours, thereby isolating the contribution of gluconeogenesis to glucose production, from potential residual glucose output due to glycogen depletion.
Cells were also tested under the glycogen depletion conditions as described above, for the effect of hormones on glucose production. The MPCCs were subjected to glycogen depletion for 12 hours, followed by stimulation of gluconeogenesis using lactate or pyruvate, in the presence or absence of insulin, glucagon or dexamethasone. Released glucose was measured 24 hours later.

[2] = tested on: human hepatocytes maintained in micropatterned co-culture with 3T3-J2 murine embryonic fibroblasts; assay: Glycogen lysis in MPCC, PAS stain of intracellular glycogen; conditions: glucose free medium + 100 nm hormone, 24 hrs after treatment; FIG. 11A
Description: (§1) Glycogen lysis and glycogen synthesis in MPCC hepatocytes was also studied. The rate of glycogen lysis in MPCCs was measured by incubating cultures with glucose-free/hormone-free medium for 48 hours (fasting), followed by fixation of cultures using 4% paraformaldehyde and staining of intracellular glycogen (periodic acid Schiff stain (“PAS stain”)). The rate of glycogen synthesis was measured by first depleting glycogen stores as described above, followed by addition of glucose to medium (feeding) and staining of glycogen at specific time-points. Results at 24 hours are shown in FIGS. 11A-B. FIG. 11A is a panel of four photomicrographs of human hepatocytes maintained in micropatterned co-culture with 3T3-J2 murine embryonic fibroblasts, indicating glycogenolysis in the cells under four conditions: 25 mM glucose, glucose free, glucose free+100 nm glucagon, and glucose free+100 nm insulin, 24 hrs after treatment. […] MPCCs were cultured in glucose free media for 2 days and depleted of all glycogen prior to the addition of 5 mM glucose. […]

[3] = tested on: human hepatocytes maintained in micropatterned co-culture with 3T3-J2 murine embryonic fibroblasts; assay: Glycogen synthesis in MPCC, PAS stain of intracellular glycogen; conditions: glycogen-depleted, 5 mM glucose + 100 nm hormone, 24 hours after treatment; FIG. 11B
Description: as §1

Row | Compound | glucose production (gluconeogenesis) [1] | glycogenolysis (intracellular glycogen, PAS stain) [2] | glycogen synthesis (intracellular glycogen, PAS stain) [3]
1 | CN(C)C(=N)N=C(N)N [metformin] | dose-dependent blockage |  | 
2 | glucagon |  | at a higher rate when stimulated by glucagon | did not synthesize glycogen
3 | insulin |  | continued storing glycogen | at a higher rate when stimulated by insulin
